Experimental data taken from US20250009737A1, “COMPOUNDS AND METHODS FOR THE TARGETED DEGRADATION OF ANDROGEN RECEPTOR” (Arvinas Operations, Inc., priority 2023, published 2025).

Target: T1, OATP1B3 (Homo sapiens, UniProt Q9NPD5)
T1 sequence (Q9NPD5 1-702): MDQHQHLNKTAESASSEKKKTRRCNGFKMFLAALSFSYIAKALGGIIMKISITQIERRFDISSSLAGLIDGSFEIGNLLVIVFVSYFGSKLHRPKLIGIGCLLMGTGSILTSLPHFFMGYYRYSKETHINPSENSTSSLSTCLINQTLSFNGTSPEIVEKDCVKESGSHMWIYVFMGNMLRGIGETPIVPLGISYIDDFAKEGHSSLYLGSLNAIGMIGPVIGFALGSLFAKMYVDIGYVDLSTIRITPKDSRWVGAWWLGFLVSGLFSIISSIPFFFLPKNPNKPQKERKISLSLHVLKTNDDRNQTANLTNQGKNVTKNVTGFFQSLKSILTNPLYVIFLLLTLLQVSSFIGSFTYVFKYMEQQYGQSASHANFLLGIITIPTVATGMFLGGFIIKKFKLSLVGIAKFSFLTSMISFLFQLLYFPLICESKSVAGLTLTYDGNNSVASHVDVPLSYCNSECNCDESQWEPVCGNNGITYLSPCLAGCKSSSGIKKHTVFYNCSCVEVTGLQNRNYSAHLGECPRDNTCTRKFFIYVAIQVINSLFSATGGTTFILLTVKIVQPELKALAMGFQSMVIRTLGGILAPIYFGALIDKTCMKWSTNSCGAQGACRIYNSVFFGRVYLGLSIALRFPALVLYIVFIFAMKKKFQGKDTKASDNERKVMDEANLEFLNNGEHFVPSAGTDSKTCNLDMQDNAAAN
Experiment: OATP1B3 uptake transporter inhibition in MDCKII or HEK293 cells
Type: in vitro ADME
Parameters: expressed in transfected cells; host or cells: MDCKII or HEK293
Conditions: substrate Rosuvastatin (1 μM)
Method: In addition, the inhibition potential against efflux transporters (P-glycoprotein (Pgp) and breast cancer resistance protein (BCRP)) and uptake transporters (MATE1, MATE2-K, OATP1B1, OATP1B3, OAT1, OAT3, and OCT2) was assessed using single transporter over-expressed cell monolayers (MDCK II or HEK293) or inside-out vesicles.
The potential of Compound A to inhibit Pgp or BCRP was tested for bidirectional transport of the probe substrates in Pgp or BCRP-expressed MDCKII and control monolayers at Compound A concentrations of 0.07-5 μM. Pgp and BCR inhibition were tested in inside-out membrane vesicles prepared from HEK293 overexpressing human Pgp and BCR at concentrations of 0.01-9 μM Compound A in the presence of 4 mM MgATP or MgAMP.

`COc1cc(O[C@H]2C(C)(C)[C@H](NC(=O)c3ccc(N4CCC(CN5CCN(c6ccc(C(=O)N[C@H]7CCC(=O)NC7=O)c(F)c6)CC5)CC4)cc3)C2(C)C)ccc1C#N` [Compound A, 4-(4-((1-(4-(((1R,3R)-3-(4-cyano-3-methoxyphenoxy)-2,2,4,4-tetramethylcyclobutyl)carbamoyl)phenyl)piperidin-4-yl)methyl)piperazin-1-yl)-N—((S)-2,6-dioxopiperidin-3-yl)-2-fluorobenzamide] showed an IC50 greater than 3.75 µM.
